Structures can show the parent of a compound that is named as a salt.
Columns and labels:
effects of 5-HTP = assay: Potentiation of effects of 5-HTP in mice; type: in vivo; settings: Mus musculus, 1 h; i.p. one hour before 5-HTP 200 mg/kg i.p.; trembling observed for an hour; read-out: MAD (minimal active dose), potentiation of 5-HTP effects
Experimental: The administration of 5-hydroxytryptophane (5-HTP) to mice pretreated with an antidepressant induces in the animals a particular behavior, namely the appearance of trembling. The tested products were administered intraperitoneally at increasing doses one hour before the intraperitoneal administration of 5-HTP at an dose of 200 mg/kg. The symptoms were observed every 15 minutes for an hour to determine the miminal active dose (MAD) of the test product and the results are reported in Table II.

effects of L-dopa = assay: Potentiation of effects of L-dopa in mice pretreated with iproniazide; type: in vivo, male mice; settings: Mus musculus, ip; i.p. one hour before L-dopa 100 mg/kg i.p.; iproniazide 75 mg/kg i.p. 18 hours before; read-out: ED50, dose which potentiates by 50% the L-dopa effects
Experimental: The administration of L-dopa to mice pretreated 18 hours previously with iproniazide produced certain number of symptoms; muscular hypertonically, hyperactivity, agitation, crying, aggressiveness, salivation and exophthalmy. The intensity of these effects is potentiated by administration of an antidepressant one hour before the administration of L-dopa. Male mices received intraperitoneally 75 mg/kg of iproniazide 18 hours before the start of the test and the tested product was intraperitoneally administered in aqueous solution in increasing doses. One hour later, L-dopa was intraperitoneally administered at a dose of 100 mg/kg and the different symptoms were observed 15 and 30 minutes later. They were evaluated on a scale of 0 to 3 for each animal and the totals for each dose were determined.

Acute toxicity in mice = type: in vivo; settings: mouse, in vivo, ip, intraperitoneal
Experimental: (§1) The LD50 dose which kills 50% of mice after intraperitoneal administration of the tested compounds was determined 48 hours later and the results are reported in Table IV.

[1] = test system: effects of monoamine oxidase inhibitor (nialamide); assay: Potentiation of effects of monoamine oxidase inhibitor (nialamide) in mice; type: in vivo; design: key: Potentiation of the effects of nialamide for the tested product was expressed in increasing number of + signs for a determined dose in mg/kg; ++: Potentiation of the effects of nialamide for the tested product was expressed in increasing number of + signs for a determined dose in mg/kg; +++: Potentiation of the effects of nialamide for the tested product was expressed in increasing number of + signs for a determined dose in mg/kg; settings: nialamide 100 mg/kg i.p. 30 minutes before, actimetry 6 hours
Experimental: The administration of a monoamine oxidase inhibitor to mice induces a hyperactive movement of the animals which is able to be potentiated by an antidepressant. Using the procedure of Carlsson et al [Brain Research, Vol. 12 (1969), p. 456], a dose of 100 mg/kg of nialamide was intraperitoneally administered to mice 30 minutes before the intraperitoneal administration of the tested product and the values of actimetric measurements were recorded every 30 minutes for 6 hours. Potentiation of the effects of nialamide for the tested product was expressed in increasing number of + signs for a determined dose in mg/kg.

[2] = test system: serotonine (5HT) uptake in synaptosomes; assay: Inhibition of Serotonine uptake in vitro (brain synaptosomes); type: biochemical, female rat 19 to 21 days old; settings: rat whole brain synaptosomes, 37° C, 5 minutes, 14 C-5HT 10^-7 M; read-out: I.C. 50, Test in vitro (inhibition of 14 C-5HT uptake)
Experimental: The inhibition of serotonine (5HT) uptake was measured in impure synaptosomes prepared from the entire brain of a female rat 19 to 21 days old using the technique of Kannengiesser et al [Biochemical Pharmacology, Vol. 22, (1973) p. 73]. Diverse concentrations of the products were placed in an incubator with the preparation at 37° C for 5 minutes in the presence of 14 C-5HT at a concentration of 10^-7 M. The 50% inhibiting concentration (IC50), dose which inhibits by 50% the uptake of 14 C-5HT in the synaptosomes was determined graphically and the IC50 dose for the compounds is reported in Table V.

[3] = test system: uptake of 14 C-5HT in synaptosomes; assay: Inhibition of Serotonine uptake in vivo (synaptosomes from treated rats); design: species or system female rats 19 to 21 days old; key: the activity was expressed in increasing number of + signs; ++: the activity was expressed in increasing number of + signs; +++: the activity was expressed in increasing number of + signs; settings: i.p. 5 to 20 mg/kg; brain removed after 30 minutes
Experimental: The tested products were intraperitoneally administered to groups of female rats 19 to 21 days old at doses of 5 to 20 mg/kg. After 30 minutes, the brain was removed and synaptosomes were prepared and placed in an incubator in the presence of 14 C-5HT as indicated in the previous test.

mice = assay: Acute toxicity in mice; type: in vivo; settings: intraperitoneal, 48 hours
Experimental: as §1

SMILES	minimal effective dose (effects of 5-HTP)	ED50 (effects of L-dopa)	LD50 at 48 h (Acute toxicity in mice)	Potentiation of nialamide ([1]; 20 mg/kg i.p.)	IC50 [2]	Test in vivo (inhibition of 14 C-5HT uptake) [3]	Potentiation of nialamide ([1]; 5 mg/kg i.p.)	Potentiation of nialamide ([1]; 1-5 mg/kg i.p.)	Potentiation of nialamide ([1]; 1 mg/kg i.p.)	LD50 (mice)
CNC1CCc2ccccc2C(c2ccccc2)C1 (stereo not shown) [Example 9, 7-methylamino-5-phenyl-6,7,8,9-tetrahydro [5H] benzocycloheptene hydrochloride]	20 mg/kg	5 mg/kg	50 mg/kg	–	–	–	–	–	–	–
CN(C)C1C=Cc2ccccc2CC1 (stereo not shown) [Example 1, 7-dimethylamino-6,7-dihydro [5H] benzocycloheptene hydrochloride]	20 mg/kg	< 5 mg/kg	75 mg/kg	++	510 nM	++	–	–	–	–
CN(C)C1CCc2ccccc2C(c2ccccc2)C1 (single isomer, unassigned) [Example 4, 7-dimethylamino-5-phenyl-6,7,8,9-tetrahydro [5H] benzocycloheptene hydrochloride]	–	–	50 mg/kg	–	–	–	–	–	–	–
CNC1C=Cc2cccc(Cl)c2CC1 (stereo not shown) [Example 11, 4-chloro-7-methylamino-6,7-dihydro [5H] benzocyclopheptene hydrochloride]	20 mg/kg	20 mg/kg	75 mg/kg	+++	400 nM	+	+	–	–	–
CNC1C=Cc2ccccc2CC1 (stereo not shown) [Example 6, 7-methylamino-6,7-dihydro [5H] benzocycloheptene hydrochloride]	5 mg/kg	10 mg/kg	75 mg/kg	+++	1900 nM	++	++	–	–	–
CN(C)C1CCc2ccccc2CC1 [Example 2, 7-dimethylamino-6,7,8,9-tetrahydro [5H] benzocycloheptene hydrochloride]	–	5 mg/kg	100 mg/kg	+++	–	–	–	+	–	–
CCNC1C=Cc2ccccc2CC1 (stereo not shown) [Example 12, 7-ethylamino-6,7-dihydro [5H] benzocycloheptene hydrochloride]	20 mg/kg	10 mg/kg	75 mg/kg	–	–	–	–	–	–	–
C=CCNC1C=Cc2ccccc2CC1 (stereo not shown) [Example 14, 7-allylamino-6,7-dihydro [5H] benzocycloheptene hydrochloride]	50 mg/kg	20 mg/kg	150 mg/kg	++	–	–	–	–	–	–
CNC1C=Cc2cc(Cl)ccc2CC1.Cl (stereo not shown) [Example 10 (2-chloro derivative), 2-chloro-7-methylamino-6,7-dihydro [5H] benzocycloheptene hydrochloride]	10 mg/kg	< 5 mg/kg	75 mg/kg	–	350 nM	+++	+++	–	+++	–
CN(C)C1C=C(c2ccccc2)c2ccccc2CC1 (stereo not shown) [Example 3, 7-dimethylamino-9-phenyl-6,7-dihydro [5H] benzocycloheptene hydrochloride]	–	2 mg/kg	100 mg/kg	–	–	–	–	–	–	–
CN(C)C1CCc2ccccc2C(c2ccccc2)C1 (single isomer, unassigned) [Example 5, 7-dimethylamino-5-phenyl-6,7,8,9-tetrahydro [5H] benzocycloheptene hydrochloride]	10 mg/kg	2 mg/kg	–	+++	150 nM	+++	–	–	+	50 mg/kg
CNC1CCc2ccccc2CC1 [Example 7, 7-methylamino-6,7,8,9-tetrahydro [5H] benzocycloheptene hydrochloride]	–	10 mg/kg	100 mg/kg	++	–	–	+	–	–	–
CNC1C=C(c2ccccc2)c2ccccc2CC1 (stereo not shown) [Example 8, 7-methylamino-9-phenyl-6,7-dihydro [5H] benzocycloheptene hydrochloride]	–	5 mg/kg	50 mg/kg	–	–	–	–	–	–	–
CN1CCN(C2C=Cc3ccccc3CC2)CC1 (stereo not shown) [Example 13, 7-(4-methylpiperazin-1-yl)-6,7,-dihydro [5H] benzocycloheptene difumarate]	50 mg/kg	20 mg/kg	250 mg/kg	++	–	–	–	–	–	–

From patent US4091115A, “7-Amino-benzocycloheptenes” (Roussel Uclaf, priority 1975, dated 1978)
